Source: patent US8269026B2, “Lupane derivatives useful for treating HIV” (priority 2008, dated 2012)
Where two headings read alike, the source gives them in different places.

Tested on: HIV-1 (HIVIIIB) replication in MT2 cell line
Experiment: HIV-1 replication in MT2 cell line with and without 30% human serum (viral RT activity in supernatant)
Assay type: cell-based
Details: Human immunodeficiency virus 1, MT2 cells, average IC50 if tested more than once
Outline: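 Read-out is supernatant reverse transcriptase activity on day 5 post-infection, giving IC50 and IC90. Compounds were titrated in complete medium ± 30% human serum, re-dosed after 3 days, on MT2 cells exposed for 3 h to HIVIIIB at MOI 0.5 then washed.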

[1] = with 30% human serum, read-out: MT2 (HIVIIIB) with HS 30% IC50 range
[2] = without human serum, read-out: MT2 (HIVIIIB) IC50 range

Row | SMILES | IC50 [1] | IC50 [2]
1 | CC(C)C1=C2C3CCC4[C@@]5(C)CC[C@H](OC(=O)CC(C)(C)C(=O)O)C(C)(C)C5CC[C@@]4(C)[C@]3(C)CC[C@@]2(NC(=O)NCC2CC2)CC1=O (stereo partly drawn) [17-21, 3β-O-(3′,3′-Dimethylsuccinyl)-17β-(N′-cyclopropylmethyl-ureido)-21-oxolup-18-ene] | 200 to 999 nM | 
2 | CC(C)C1=C2[C@H]3CC[C@@H]4[C@@]5(C)CC[C@H](OC(=O)CC(C)(C)C(=O)O)C(C)(C)[C@@H]5CC[C@@]4(C)[C@]3(C)CC[C@@]2(NC(=O)NCc2nccn2C)CC1=O [17-73, 3β-O-(3′,3′-Dimethylsuccinyl)-17β-[N′-(1-methyl-1H-imidazol-2-yl-methyl)-ureido]-21-oxolup-18-ene] | < 199 nM | 
3 | CCc1nnc(C(=O)N[C@@]23CC[C@]4(C)C(CCC5[C@@]6(C)CC[C@H](OC(=O)CC(C)(C)C(=O)O)C(C)(C)C6CC[C@]54C)C2=C(C(C)C)C(=O)C3)o1 (stereo partly drawn) [19-79, 3β-O-(3′,3′-Dimethylsuccinyl)-17β-(5-ethyl-[1,3,4]-oxadiazole-2-amido)-21-oxolup-18-ene] | < 199 nM | 
4 | CC(C)C1=C2[C@H]3CC[C@@H]4[C@@]5(C)CC[C@H](OC(=O)CC(C)(C)C(=O)O)C(C)(C)[C@@H]5CC[C@@]4(C)[C@]3(C)CC[C@@]2(NC(=O)Nc2ccccn2)CC1=O [17-25, 3β-O-(3′,3′-Dimethylsuccinyl)-17β-(N′-pyridin-2-yl-ureido)-21-oxolup-18-ene] | < 199 nM | 
5 | CC(C)C1=C2C3CCC4[C@@]5(C)CC[C@H](OC(=O)CC(C)(C)C(=O)O)C(C)(C)C5CC[C@@]4(C)[C@]3(C)CC[C@@]2(NC(=O)NCc2cccs2)CC1=O (stereo partly drawn) [17-64, 3β-O-(3′,3′-Dimethylsuccinyl)-17β-[N′-(thiophen-2-ylmethyl)-ureido]-21-oxolup-18-ene] | < 199 nM | 
6 | CC(C)C1=C2[C@H]3CC[C@@H]4[C@@]5(C)CC[C@H](OC(=O)CC(C)(C)C(=O)O)C(C)(C)[C@@H]5CC[C@@]4(C)[C@]3(C)CC[C@@]2(NC(=O)c2cnn(C)c2)CC1=O [19-35, 3β-O-(3′,3′-Dimethylsuccinyl)-17β-(1-methyl-1H-pyrazole-4-amido)-21-oxolup-18-ene] | < 199 nM | < 199 nM
7 | CC(C)C1=C2[C@H]3CC[C@@H]4[C@@]5(C)CC[C@H](OC(=O)CC(C)(C)C(=O)O)C(C)(C)[C@@H]5CC[C@@]4(C)[C@]3(C)CC[C@@]2(NC2CCN(C(=O)OC(C)(C)C)CC2)CC1=O [16-1, 3β-O-(3′,3′-Dimethylsuccinyl)-17β-(1-tert-butyloxycarbonylpiperidine-4-amino]-21-oxolup-18-ene] | < 199 nM | < 199 nM
8 | CC(C)C1=C2[C@H]3CC[C@@H]4[C@@]5(C)CC[C@H](OC(=O)CC(C)(C)C(=O)O)C(C)(C)[C@@H]5CC[C@@]4(C)[C@]3(C)CC[C@@]2(NC(=O)NCc2nncn2C)CC1=O [17-74, 3β-O-(3′,3′-Dimethylsuccinyl)-17β-[N′-(4-methyl-4H-[1,2,4]triazol-3-yl-methyl)-ureido]-21-oxolup-18-ene] | > 1000 nM | 
9 | CC(C)C1=C2C3CCC4[C@@]5(C)CC[C@H](OC(=O)CC(C)(C)C(=O)O)C(C)(C)C5CC[C@@]4(C)[C@]3(C)CC[C@@]2(NC(=O)c2cscn2)CC1=O (stereo partly drawn) [19-27, 3β-O-(3′,3′-Dimethylsuccinyl)-17β-(1,3-thiazole-4-amido)-21-oxolup-18-ene] | < 199 nM | 
10 | CC(C)C1=C2C3CCC4[C@@]5(C)CC[C@H](OC(=O)CC(C)(C)C(=O)O)C(C)(C)C5CC[C@@]4(C)[C@]3(C)CC[C@@]2(NC(=O)Nc2cccnc2)CC1=O (stereo partly drawn) [17-6, 3β-O-(3′,3′-Dimethylsuccinyl)-17β-[N′-(pyridin-3-yl)ureido]-21-oxolup-18-ene] | < 199 nM | < 199 nM
11 | Cc1nnc(NC(=O)N[C@@]23CC[C@]4(C)C(CCC5[C@@]6(C)CC[C@H](OC(=O)CC(C)(C)C(=O)O)C(C)(C)C6CC[C@]54C)C2=C(C(C)C)C(=O)C3)s1 (stereo partly drawn) [17-45, 3β-O-(3′,3′-Dimethylsuccinyl)-17β-(N′-5-methyl-[1,3,4]thiadiazol-2-yl-ureido)-21-oxolup-18-ene] | < 199 nM | 
12 | Cc1ccc(C(=O)N[C@@]23CC[C@]4(C)[C@H](CC[C@@H]5[C@@]6(C)CC[C@H](OC(=O)CC(C)(C)C(=O)O)C(C)(C)[C@@H]6CC[C@]54C)C2=C(C(C)C)C(=O)C3)cn1 [19-48, 3β-O-(3′,3′-Dimethylsuccinyl)-17β-(6-methylpyridin-3-yl)amido-21-oxolup-18-ene] | < 199 nM | 
13 | CC(C)C1=C2C3CCC4[C@@]5(C)CC[C@H](OC(=O)CC(C)(C)C(=O)O)C(C)(C)C5CC[C@@]4(C)[C@]3(C)CC[C@@]2(NC(=O)NC2CCNCC2)CC1=O (stereo partly drawn) [17-10, 3β-O-(3′,3′-Dimethylsuccinyl)-17β-(N′-piperidin-4-yl-ureido)-21-oxolup-18-ene] | > 1000 nM | 
14 | CC(C)C1=C2C3CCC4[C@@]5(C)CC[C@H](OC(=O)CC(C)(C)C(=O)O)C(C)(C)C5CC[C@@]4(C)[C@]3(C)CC[C@@]2(NC(=O)OC2CCSCC2)CC1=O (stereo partly drawn) [20-14, 3β-O-(3′,3′-Dimethylsuccinyl)-17β-(tetrahydro-thiopyran-4-oxycarbonylamino)-21-oxolup-18-ene] | < 199 nM | 
15 | Cc1nnc(CNC(=O)N[C@@]23CC[C@]4(C)C(CCC5[C@@]6(C)CC[C@H](OC(=O)CC(C)(C)C(=O)O)C(C)(C)C6CC[C@]54C)C2=C(C(C)C)C(=O)C3)o1 (stereo partly drawn) [17-65, 3β-O-(3′,3′-Dimethylsuccinyl)-17β-[N′-(2-methyl-[1,3,4]oxadiazol-2-ylmethyl)-ureido]-21-oxolup-18-ene] | < 199 nM | 
16 | CC(C)C1=C2C3CCC4[C@@]5(C)CC[C@H](OC(=O)CC(C)(C)C(=O)O)C(C)(C)C5CC[C@@]4(C)[C@]3(C)CC[C@@]2(NC(=O)N2CCC(N)CC2)CC1=O (stereo partly drawn) [17-24, 3β-O-(3′,3′-Dimethylsuccinyl)-17β-[(4-amino-piperidine-1-carbonyl)-amino]-21-oxolup-18-ene] | 200 to 999 nM | 
17 | CC(C)C1=C2C3CCC4[C@@]5(C)CC[C@H](OC(=O)CC(C)(C)C(=O)O)C(C)(C)C5CC[C@@]4(C)[C@]3(C)CC[C@@]2(NC(=O)N[C@H](C)c2ccccc2)CC1=O (stereo partly drawn) [17-62, 3β-O-(3′,3′-Dimethylsuccinyl)-17β-[N′-((R)-1-phenyl-ethyl)-ureido]-21-oxolup-18-ene] | < 199 nM | 
18 | CC(C)C1=C2[C@H]3CC[C@@H]4[C@@]5(C)CC[C@H](OC(=O)CC(C)(C)C(=O)O)C(C)(C)[C@@H]5CC[C@@]4(C)[C@]3(C)CC[C@@]2(NC(=O)C2CCN(C(=O)OC(C)(C)C)CC2)CC1=O [19-5, 3β-O-(3′,3′-Dimethylsuccinyl)-17β-(1-tert-butyloxycarbonylpiperidine-4-amido)-21-oxolup-18-ene] | < 199 nM | < 199 nM
19 | CC(C)C1=C2C3CCC4[C@@]5(C)CC[C@H](OC(=O)CC(C)(C)C(=O)O)C(C)(C)C5CC[C@@]4(C)[C@]3(C)CC[C@@]2(NC(=O)N[C@H](C)C(F)(F)F)CC1=O (stereo partly drawn) [17-51, 3β-O-(3′,3′-Dimethylsuccinyl)-17β-[N′-((R)-2,2,2-trifluoro-1-methyl-ethyl)-ureido]-21-oxolup-18-ene] | < 199 nM | 
20 | Cc1ccccc1C(=O)N[C@@]12CC[C@]3(C)[C@H](CC[C@@H]4[C@@]5(C)CC[C@H](OC(=O)CC(C)(C)C(=O)O)C(C)(C)[C@@H]5CC[C@]43C)C1=C(C(C)C)C(=O)C2 [19-45, 3β-O-(3′,3′-Dimethylsuccinyl)-17β-(2-methylbenzamido)-21-oxolup-18-ene] | < 199 nM | 
21 | CC(C)C1=C2[C@H]3CC[C@@H]4[C@@]5(C)CC[C@H](OC(=O)CC(C)(C)C(=O)O)C(C)(C)[C@@H]5CC[C@@]4(C)[C@]3(C)CC[C@@]2(NC(=O)[C@H]2CCCN2C)CC1=O [19-55] | < 199 nM | 
22 | CC(C)C1=C2C3CCC4[C@@]5(C)CC[C@H](OC(=O)CC(C)(C)C(=O)O)C(C)(C)C5CC[C@@]4(C)[C@]3(C)CC[C@@]2(NC(=O)NCc2cncnc2)CC1=O (stereo partly drawn) [17-68, 3β-O-(3′,3′-Dimethylsuccinyl)-17β-[N′-(pyrimidin-5-ylmethyl)ureido]-21-oxolup-18-ene] | < 199 nM | 
23 | CC(C)C1=C2C3CCC4[C@@]5(C)CC[C@H](OC(=O)CC(C)(C)C(=O)O)C(C)(C)C5CC[C@@]4(C)[C@]3(C)CC[C@@]2(NC(=O)C2CC3CCC(C2)O3)CC1=O (stereo partly drawn) [19-70, 3β-O-(3′,3′-Dimethylsuccinyl)-17β-(8β-oxa-bicyclo[3.2.1]octane-3-amido)-21-oxolup-18-ene] | < 199 nM | 
24 | CC(C)C1=C2C3CCC4[C@@]5(C)CC[C@H](OC(=O)CC(C)(C)C(=O)O)C(C)(C)C5CC[C@@]4(C)[C@]3(C)CC[C@@]2(NC(=O)N2CC[C@H](NC(=O)OC(C)(C)C)C2)CC1=O (stereo partly drawn) [17-41, 3β-O-(3′,3′-Dimethylsuccinyl)-17β-[((S)-3-tert-butyloxycarbonylamino-pyrrolidine-1-carbonyl)-amino]-21-oxolup-18-ene] | < 199 nM | 
25 | CC(C)C1=C2C3CCC4[C@@]5(C)CC[C@H](OC(=O)CC(C)(C)C(=O)O)C(C)(C)C5CC[C@@]4(C)[C@]3(C)CC[C@@]2(NC(=O)NCc2cccnc2)CC1=O (stereo partly drawn) [17-12, 3β-O-(3′,3′-Dimethylsuccinyl)-17β-[N′-(pyridin-3-ylmethyl)ureido]-21-oxolup-18-ene] | < 199 nM | 
26 | CC(C)C1=C2[C@H]3CC[C@@H]4[C@@]5(C)CC[C@H](OC(=O)CC(C)(C)C(=O)O)C(C)(C)[C@@H]5CC[C@@]4(C)[C@]3(C)CC[C@@]2(NC(=O)Nc2ccncc2)CC1=O [17-26, 3β-O-(3′,3′-Dimethylsuccinyl)-17β-(N′-pyridin-4-yl-ureido)-21-oxolup-18-ene] | < 199 nM | 
27 | Cc1cc(C(=O)N[C@@]23CC[C@]4(C)[C@H](CC[C@@H]5[C@@]6(C)CC[C@H](OC(=O)CC(C)(C)C(=O)O)C(C)(C)[C@@H]6CC[C@]54C)C2=C(C(C)C)C(=O)C3)cc(C)n1 [19-64, 3β-O-(3′,3′-Dimethylsuccinyl)-17β-(2,6-dimethylpyridin-4-yl)amido-21-oxolup-18-ene] | < 199 nM | 
